{"source": "patent US20090041818A1", "about": "“ANTIVIRAL AGENT, AND FABRIC AND ANTIVIRAL MEMBER […] AGENT” (priority 2003, published 2009)", "system": "influenza type A virus, Cygnus columbianus/Shimane/499/83 (H5N3) (avian strain)"}
{"molecule": "[O]=[Ca]", "note": "[Sample 1, calcium oxide]", "values": [{"measurement": "antiviral effect (in words, comparison of samples)", "value": "high antiviral effect"}]}
